Assay results from US20210382058A1, “PATIENT SELECTION FOR TREATMENT OF MYC POSITIVE CANCERS WITH INDENOISOQUINOLINES” (Purdue Research Foundation, priority 2020, published 2021).
Read-outs that look alike come from different tables or passages of the source.

Experiments:
human topoisomerase I = molecular target: T1, human topoisomerase I (Homo sapiens, UniProt P11387); details: relative topoisomerase I inhibition levels, previously determined, six levels (0 - 5, +++++ = 5); cited from earlier work
T1 sequence (P11387 1-765): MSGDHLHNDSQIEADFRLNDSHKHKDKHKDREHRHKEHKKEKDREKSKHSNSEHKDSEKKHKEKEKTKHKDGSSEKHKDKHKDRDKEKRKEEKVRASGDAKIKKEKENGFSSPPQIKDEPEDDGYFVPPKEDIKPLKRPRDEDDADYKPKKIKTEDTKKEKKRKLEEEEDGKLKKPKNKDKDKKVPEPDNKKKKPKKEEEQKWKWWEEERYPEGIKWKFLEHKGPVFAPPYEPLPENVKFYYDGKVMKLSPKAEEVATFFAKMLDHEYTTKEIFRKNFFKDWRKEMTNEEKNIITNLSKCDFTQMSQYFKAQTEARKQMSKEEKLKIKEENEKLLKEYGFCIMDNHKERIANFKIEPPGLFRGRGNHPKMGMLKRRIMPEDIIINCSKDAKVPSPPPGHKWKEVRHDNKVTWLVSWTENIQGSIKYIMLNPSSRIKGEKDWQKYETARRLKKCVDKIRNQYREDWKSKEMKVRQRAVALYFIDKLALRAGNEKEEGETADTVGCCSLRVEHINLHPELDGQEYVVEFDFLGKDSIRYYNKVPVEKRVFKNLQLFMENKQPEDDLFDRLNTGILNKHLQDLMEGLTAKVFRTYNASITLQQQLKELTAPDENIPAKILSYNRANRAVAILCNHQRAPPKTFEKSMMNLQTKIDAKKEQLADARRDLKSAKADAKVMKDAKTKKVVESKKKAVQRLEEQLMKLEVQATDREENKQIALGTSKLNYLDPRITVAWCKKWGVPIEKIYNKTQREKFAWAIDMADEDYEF

[1] = test system: MYC protein expression in MCF-7 breast cancer cells; assay: Western blotting of MYC protein level in MCF-7 cells; type: cell-based, human; details: Homo sapiens, MCF7; western blotting, MCF-7 cells, 0.5, 1, 2, and 4 μM, 24 hours; read-out: MYC Inhibition
Outline: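 Immunoblotting with ECL detection quantified MYC, with GAPDH (1:2000) as reference and anti-MYC at 1:1000.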

NCI-60 cancer cell lines = assay: NCI-60 cancer cell line drug screen (GI50, MGM); type: cell-based, human; details: Homo sapiens; for GI50: read-out: Antiproliferative Activities [GI50 (μM)]
Description: Cancer cells were incubated with the test compounds at five concentrations ranging from 100 μM to 10 nM for 48 h. […] The approximate average of GI50 values across the entire panel of NCI-60 cancer cell lines for each compound was recorded as the MGM value.

In the case of COc1cc2c(cc1O)-c1c(c3ccc([N+](=O)[O-])cc3c(=O)n1CCCN)C2=O [Compound 38], the “Top1 Inhibiton” value (human topoisomerase I) is listed as “++ (medium inhibition, ++, MYC expression inhibited at 2.0 μM, or no clear dose-dependent MYC inhibition)”, the minimal effective concentration [1] is listed as 4 µM and the GI50 (NCI-60 cancer cell lines; 786-0, Renal Cancer, 786-0) is listed as 0.34 µM. The GI50 (NCI-60 cancer cell lines; A498, Renal Cancer, A498) was 0.96 µM, the GI50 (NCI-60 cancer cell lines; A549, Non-Small Cell Lung Cancer, A549/ATCC) was 1.31 µM and the GI50 (NCI-60 cancer cell lines; ACHN, Renal Cancer, ACHN) was 0.28 µM. For the same molecule, the GI50 (NCI-60 cancer cell lines; BT-549, Breast Cancer, BT-549) was 0.36 µM, the GI50 (NCI-60 cancer cell lines; CAKI-1, Renal Cancer, CAKI-1) was 0.29 µM and the GI50 (NCI-60 cancer cell lines; CCRF-CEM, Leukemia, CCRF-CEM) was 0.11 µM. The GI50 (NCI-60 cancer cell lines; COLO 205, Colon Cancer, COLO 205) was 0.69 µM, the GI50 (NCI-60 cancer cell lines; DU-145, Prostate Cancer, DU-145) was 0.43 µM and the GI50 (NCI-60 cancer cell lines; HCC 2998, Colon Cancer, HCC-2998) was 0.62 µM. For the same molecule, the GI50 (NCI-60 cancer cell lines; HCT-15, Colon Cancer, HCT-15) was 1.49 µM, the GI50 (NCI-60 cancer cell lines; HCT-116, Colon Cancer, HCT-116) was 0.15 µM and the GI50 (NCI-60 cancer cell lines; HL-60, Leukemia, HL-60(TB)) was 1.48 µM. The GI50 (NCI-60 cancer cell lines; HOP-62, Non-Small Cell Lung Cancer, HOP-62) was 0.46 µM, the GI50 (NCI-60 cancer cell lines; HOP-92, Non-Small Cell Lung Cancer, HOP-92) was 1.34 µM and the GI50 (NCI-60 cancer cell lines; HT-29, Colon Cancer, HT29) was 0.48 µM. The GI50 (NCI-60 cancer cell lines; IGROV-1, Ovarian Cancer, IGROV1) was 1.24 µM, the GI50 (NCI-60 cancer cell lines; K562, Leukemia, K-562) was 0.77 µM and the GI50 (NCI-60 cancer cell lines; KM12, Colon Cancer, KM12) was 1.34 µM. The GI50 (NCI-60 cancer cell lines; LOX IMVI, Melanoma, LOX IMVI) was 0.3 µM, the GI50 (NCI-60 cancer cell lines; Leukemia, SR) was 0.04 µM and the GI50 (NCI-60 cancer cell lines; MCF7, Breast Cancer, MCF7) was 0.16 µM. For the same molecule, the GI50 (NCI-60 cancer cell lines; MDA-MB-231, Breast Cancer, MDA-MB-231/ATCC) was 1.57 µM, the GI50 (NCI-60 cancer cell lines; MDA-MB-435, Melanoma, MDA-MB-435) was 1.3 µM and the GI50 (NCI-60 cancer cell lines; MDA-MB-468, Breast Cancer, MDA-MB-468) was 0.24 µM. The GI50 (NCI-60 cancer cell lines; MOLT-4, Leukemia, MOLT-4) was 0.15 µM, the GI50 (NCI-60 cancer cell lines; Malme-3M, Melanoma, MALME-3M) was 2.16 µM and the GI50 (NCI-60 cancer cell lines; Melanoma, M14) was 0.46 µM. For the same molecule, the GI50 (NCI-60 cancer cell lines; NCI-H23, Non-Small Cell Lung Cancer, NCI-H23) was 0.38 µM, the GI50 (NCI-60 cancer cell lines; NCI-H226, Non-Small Cell Lung Cancer, NCI-H226) was 1.18 µM and the GI50 (NCI-60 cancer cell lines; NCI-H322M, Non-Small Cell Lung Cancer, NCI-H322M) was 1.39 µM. The GI50 (NCI-60 cancer cell lines; NCI-H460, Non-Small Cell Lung Cancer, NCI-H460) was 0.37 µM, the GI50 (NCI-60 cancer cell lines; NCI-H522, Non-Small Cell Lung Cancer, NCI-H522) was 0.78 µM and the GI50 (NCI-60 cancer cell lines; OVCAR-3, Ovarian Cancer, OVCAR-3) was 1.69 µM. For the same molecule, the GI50 (NCI-60 cancer cell lines; OVCAR-4, Ovarian Cancer, OVCAR-4) was 1.11 µM, the GI50 (NCI-60 cancer cell lines; OVCAR-5, Ovarian Cancer, OVCAR-5) was 1.67 µM and the GI50 (NCI-60 cancer cell lines; OVCAR-8, Ovarian Cancer, OVCAR-8) was 1.01 µM. The GI50 (NCI-60 cancer cell lines; Ovarian Cancer, NCl/ADR-RES) was 2.55 µM, the GI50 (NCI-60 cancer cell lines; Prostate Cancer, PC-3) was 0.64 µM and the GI50 (NCI-60 cancer cell lines; RPMI-8226, Leukemia, RPMI-8226) was 1.02 µM. It also gave a GI50 (NCI-60 cancer cell lines; RXF 393, Renal Cancer, RXF 393) of 1.13 µM, a GI50 (NCI-60 cancer cell lines; Renal Cancer, U0-31) of 0.69 µM and a GI50 (NCI-60 cancer cell lines; SF-268, CNS Cancer, SF-268) of 0.55 µM. For the same molecule, the GI50 (NCI-60 cancer cell lines; SF-295, CNS Cancer, SF-295) was 0.28 µM, the GI50 (NCI-60 cancer cell lines; SF-539, CNS Cancer, SF-539) was 0.67 µM and the GI50 (NCI-60 cancer cell lines; SK-MEL-2, Melanoma, SK-MEL-2) was 2.18 µM. The GI50 (NCI-60 cancer cell lines; SK-MEL-5, Melanoma, SK-MEL-5) was 1.26 µM, the GI50 (NCI-60 cancer cell lines; SK-MEL-28, Melanoma, SK-MEL-28) was 1.88 µM and the GI50 (NCI-60 cancer cell lines; SK-OV-3, Ovarian Cancer, SK-OV-3) was 1.15 µM. The GI50 (NCI-60 cancer cell lines; SN12C, Renal Cancer, SN12C) was 0.45 µM, the GI50 (NCI-60 cancer cell lines; SNB-19, CNS Cancer, SNB-19) was 1.08 µM and the GI50 (NCI-60 cancer cell lines; SNB-75, CNS Cancer, SNB-75) was 0.16 µM. For the same molecule, the GI50 (NCI-60 cancer cell lines; SW-620, Colon Cancer, SW-620) was 0.34 µM, the GI50 (NCI-60 cancer cell lines; T47D, Breast Cancer, T-47D) was 0.7 µM and the GI50 (NCI-60 cancer cell lines; TK-10, Renal Cancer, TK-10) was 1.85 µM. The GI50 (NCI-60 cancer cell lines; U-251, CNS Cancer, U251) was 0.33 µM, the GI50 (NCI-60 cancer cell lines; UACC-62, Melanoma, UACC-62) was 0.95 µM and the GI50 (NCI-60 cancer cell lines; UACC-257, Melanoma, UACC-257) was 1.57 µM. For the same molecule, the mean GI50 across NCI-60 panel (MGM) (NCI-60 cancer cell lines; average of GI50 values across the entire panel of NCI-60 cancer cell lines) was 660 nM.
